Patent US11447466B2, “Substituted indole compounds useful as inhibitors of TLR7/8/9” (BRISTOL-MYERS SQUIBB COMPANY, priority 2017, dated 2022)

Assays:
Format in all cases: cell-based
human TLR7 = molecular target: T1, human TLR7 (Homo sapiens, UniProt Q9NYK1); assay: TLR7 inhibition reporter assay (HEK-Blue SEAP reporter, gardiquimod stimulation); conditions: HEK-Blue cells overexpressing human TLR7, SEAP reporter, gardiquimod 7.5 μM, 22 hour incubation
T1 construct: host or cells: HEK-Blue cells
T1 sequence (Q9NYK1 27-1049): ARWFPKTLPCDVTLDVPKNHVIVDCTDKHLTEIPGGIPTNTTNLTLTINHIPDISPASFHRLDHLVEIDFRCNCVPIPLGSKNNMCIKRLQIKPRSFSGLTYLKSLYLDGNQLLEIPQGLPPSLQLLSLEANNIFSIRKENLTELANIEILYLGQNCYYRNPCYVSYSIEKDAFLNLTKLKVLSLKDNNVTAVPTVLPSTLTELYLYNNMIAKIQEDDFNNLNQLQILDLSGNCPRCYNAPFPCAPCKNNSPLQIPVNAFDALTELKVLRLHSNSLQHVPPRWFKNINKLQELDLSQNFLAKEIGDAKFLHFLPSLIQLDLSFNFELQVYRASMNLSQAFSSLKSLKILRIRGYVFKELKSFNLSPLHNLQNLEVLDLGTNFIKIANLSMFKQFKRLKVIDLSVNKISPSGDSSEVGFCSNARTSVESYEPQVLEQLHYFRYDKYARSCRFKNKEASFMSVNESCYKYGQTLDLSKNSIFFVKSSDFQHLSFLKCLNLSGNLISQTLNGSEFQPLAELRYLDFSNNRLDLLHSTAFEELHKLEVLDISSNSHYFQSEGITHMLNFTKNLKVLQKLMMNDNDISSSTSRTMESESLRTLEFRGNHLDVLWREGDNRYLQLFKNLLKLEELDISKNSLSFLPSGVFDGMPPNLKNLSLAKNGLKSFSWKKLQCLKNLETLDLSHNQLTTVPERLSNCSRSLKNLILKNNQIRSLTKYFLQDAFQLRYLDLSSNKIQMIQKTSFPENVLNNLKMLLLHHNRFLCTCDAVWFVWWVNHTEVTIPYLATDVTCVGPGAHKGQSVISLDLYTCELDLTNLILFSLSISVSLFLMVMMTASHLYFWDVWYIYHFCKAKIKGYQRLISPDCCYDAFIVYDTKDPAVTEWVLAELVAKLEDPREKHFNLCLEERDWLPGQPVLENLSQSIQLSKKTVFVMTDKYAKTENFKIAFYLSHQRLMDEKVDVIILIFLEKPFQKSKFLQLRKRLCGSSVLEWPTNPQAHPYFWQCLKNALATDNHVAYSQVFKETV
How it was run: (§1)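 Dose–response from 0.05 nM to 50 μM was run in HEK-Blue human TLR7, TLR8 and TLR9 reporter cells. After 30 min at room temperature with compound, ligand was added (TLR7 gardiquimod 7.5 μM; TLR8 R848 15.9 μM; TLR9 ODN2006 5 nM) and SEAP measured next day, at 22 h.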

human TLR8 = molecular target: T2, human TLR8 (Homo sapiens, UniProt Q9NR97); assay: TLR8 inhibition reporter assay (HEK-Blue SEAP reporter, R848 stimulation); conditions: HEK-Blue cells overexpressing human TLR8, SEAP reporter, R848 15.9 μM, 22 hour incubation
T2 construct: host or cells: HEK-Blue cells
T2 sequence (Q9NR97 27-1041): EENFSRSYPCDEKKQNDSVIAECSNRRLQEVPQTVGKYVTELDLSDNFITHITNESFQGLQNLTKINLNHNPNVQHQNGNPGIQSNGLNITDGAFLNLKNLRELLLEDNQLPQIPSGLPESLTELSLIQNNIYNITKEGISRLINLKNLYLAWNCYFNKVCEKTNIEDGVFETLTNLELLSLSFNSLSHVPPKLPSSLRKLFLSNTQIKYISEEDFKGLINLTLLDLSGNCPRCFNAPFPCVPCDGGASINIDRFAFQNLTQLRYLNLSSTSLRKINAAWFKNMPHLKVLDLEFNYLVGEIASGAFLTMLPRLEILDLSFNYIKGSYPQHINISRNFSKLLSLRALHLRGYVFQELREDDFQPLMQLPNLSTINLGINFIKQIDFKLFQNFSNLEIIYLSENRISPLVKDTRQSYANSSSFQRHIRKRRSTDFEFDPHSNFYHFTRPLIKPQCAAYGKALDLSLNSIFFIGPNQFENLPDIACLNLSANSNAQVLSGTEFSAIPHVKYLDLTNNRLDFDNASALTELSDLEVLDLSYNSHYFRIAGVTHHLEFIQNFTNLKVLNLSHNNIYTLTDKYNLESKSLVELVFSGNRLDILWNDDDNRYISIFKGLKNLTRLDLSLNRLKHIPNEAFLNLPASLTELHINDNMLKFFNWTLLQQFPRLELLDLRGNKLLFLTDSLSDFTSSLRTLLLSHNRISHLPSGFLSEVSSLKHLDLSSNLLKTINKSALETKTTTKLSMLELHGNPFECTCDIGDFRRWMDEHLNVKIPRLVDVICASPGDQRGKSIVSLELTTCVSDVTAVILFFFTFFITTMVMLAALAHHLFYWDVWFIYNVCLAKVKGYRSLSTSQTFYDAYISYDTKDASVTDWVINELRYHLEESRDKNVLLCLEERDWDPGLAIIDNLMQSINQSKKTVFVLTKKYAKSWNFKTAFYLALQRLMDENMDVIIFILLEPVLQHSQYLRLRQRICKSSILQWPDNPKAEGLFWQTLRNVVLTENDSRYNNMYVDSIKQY
How it was run: as §1

human TLR9 = molecular target: T3, human TLR9 (Homo sapiens, UniProt Q9NR96); assay: TLR9 inhibition reporter assay (HEK-Blue SEAP reporter, ODN2006 stimulation); conditions: HEK-Blue cells overexpressing human TLR9, SEAP reporter, ODN2006 5 nM, 22 hour incubation
T3 construct: host or cells: HEK-Blue cells
T3 sequence (Q9NR96 26-1032): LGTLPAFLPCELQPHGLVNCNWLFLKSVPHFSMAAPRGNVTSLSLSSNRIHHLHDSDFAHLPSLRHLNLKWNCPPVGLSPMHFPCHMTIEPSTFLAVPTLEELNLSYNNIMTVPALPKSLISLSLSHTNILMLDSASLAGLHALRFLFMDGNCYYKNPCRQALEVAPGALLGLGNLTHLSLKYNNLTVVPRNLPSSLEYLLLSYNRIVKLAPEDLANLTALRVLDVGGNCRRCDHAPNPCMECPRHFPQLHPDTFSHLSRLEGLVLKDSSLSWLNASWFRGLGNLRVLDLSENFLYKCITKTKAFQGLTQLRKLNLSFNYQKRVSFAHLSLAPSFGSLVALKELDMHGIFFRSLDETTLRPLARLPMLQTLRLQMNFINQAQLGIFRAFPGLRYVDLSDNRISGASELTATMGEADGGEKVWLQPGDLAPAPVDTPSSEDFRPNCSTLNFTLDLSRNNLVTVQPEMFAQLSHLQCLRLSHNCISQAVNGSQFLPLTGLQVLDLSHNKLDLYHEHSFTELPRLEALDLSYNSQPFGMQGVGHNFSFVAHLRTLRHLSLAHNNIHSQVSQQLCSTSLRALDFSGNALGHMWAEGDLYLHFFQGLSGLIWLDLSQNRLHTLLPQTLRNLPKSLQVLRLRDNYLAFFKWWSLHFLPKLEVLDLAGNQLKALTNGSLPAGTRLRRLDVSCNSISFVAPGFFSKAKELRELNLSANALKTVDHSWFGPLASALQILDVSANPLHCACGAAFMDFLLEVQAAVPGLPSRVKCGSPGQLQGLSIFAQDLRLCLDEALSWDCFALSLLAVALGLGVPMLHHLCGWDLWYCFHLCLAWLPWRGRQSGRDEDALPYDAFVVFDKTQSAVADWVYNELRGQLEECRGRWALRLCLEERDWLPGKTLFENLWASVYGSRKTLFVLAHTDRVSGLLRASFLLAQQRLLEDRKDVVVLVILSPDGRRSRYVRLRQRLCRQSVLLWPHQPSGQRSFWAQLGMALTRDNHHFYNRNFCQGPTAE
How it was run: as §1

Compound | IC50 (human TLR7) [nM] | IC50 (human TLR8) [nM] | IC50 (human TLR9) [nM]
Cc1c(-c2[nH]c3ccc(C4CCNCC4)cc3c2C(C)C)cn(C)c(=O)c1Cl [Example 31, 3-chloro-5-(3-isopropyl-5-(piperidin-4-yl)-1H-indol-2-yl)-1,4-dimethylpyridin-2(1H)-one] | 1 | 7 | 1120
Cc1c(-c2[nH]c3ccc(C4CCN(CC#N)CC4)cc3c2C(C)C)cn(C)c(=O)c1Cl [Example 96, 2-(4-(2-(5-chloro-1,4-dimethyl-6-oxo-1,6-dihydropyridin-3-yl)-3-isopropyl-1H-indol-5-yl)piperidin-1-yl)acetonitrile] | 2 | 14.3 | 2860
Cc1nc(-c2[nH]c3ccc(C4CCN(CC(=O)N(C)C)CC4)cc3c2C(C)C)cn(C)c1=O [Example 115, 2-(4-(2-(4,6-dimethyl-5-oxo-4,5-dihydropyrazin-2-yl)-3-isopropyl-1H-indol-5-yl)piperidin-1-yl)-N,N-dimethylacetamide] | 48 | 42.1 | 6590
CC(C)c1c(-c2cc(-c3cccnc3)c(=O)n(C)c2)[nH]c2ccc(C3CCN(C(C)C)CC3)cc12 [Example 235, 5-(3-isopropyl-5-(1-isopropylpiperidin-4-yl)-1H-indol-2-yl)-1-methyl-[3,3′-bipyridin]-2(1H)-one] | 11 | 5.2 | 1770
CCc1cc(-c2[nH]c3ccc(C4CCNCC4)cc3c2C(C)C)cn(CC)c1=O [Example 68, 1,3-diethyl-5-(3-isopropyl-5-(piperidin-4-yl)-1H-indol-2-yl)pyridin-2(1H)-one] | 8.5 | 9.8 | 5360
Cc1cc(=O)n(C)nc1-c1[nH]c2ccc(C3CCNCC3)cc2c1C(C)C [Example 10, 6-(3-isopropyl-5-(piperidin-4-yl)-1H-indol-2-yl)-2,5-dimethylpyridazin-3(2H)-one] | 330 | 38.4 | 1540
Cc1nc(-c2[nH]c3ccc(C4CCN(C(C)C)CC4)cc3c2C(C)C)cn(C)c1=O [Example 184, 5-(3-isopropyl-5-(1-isopropylpiperidin-4-yl)-1H-indol-2-yl)-1,3-dimethylpyrazin-2(1H)-one] | 71.8 | 34.2 | 2120
COCCOCCN1CCC(c2ccc3[nH]c(-c4cn(C)c(=O)c(Cl)c4C)c(C(C)C)c3c2)CC1 [Example 101, 3-chloro-5-(3-isopropyl-5-(1-(2-(2-methoxyethoxy)ethyl)piperidin-4-yl)-1H-indol-2-yl)-1,4-dimethylpyridin-2(1H)-one] | 12.8 | 9.3 | 4880
Cc1cc(-c2[nH]c3ccc(C4CCN(CC(=O)N(C)C)CC4)cc3c2C(C)C)c(C)n(C)c1=O [Example 138, 2-(4-(3-isopropyl-2-(1,2,5-trimethyl-6-oxo-1,6-dihydropyridin-3-yl)-1H-indol-5-yl)piperidin-1-yl)-N,N-dimethylacetamide] | 17.5 | 5.2 | 7610

Continued by falling IC50 (human TLR7), values first:

IC50 (human TLR7) [nM] | IC50 (human TLR8) [nM] | IC50 (human TLR9) [nM] | Compound
47.7 | 52.3 | 2120 | Cc1cc(-c2[nH]c3ccc(C4CCN(C5CCOCC5)CC4)cc3c2C(C)C)cn(CC(C)C)c1=O [Example 262, 1-isobutyl-5-(3-isopropyl-5-(1-(tetrahydro-2H-pyran-4-yl)piperidin-4-yl)-1H-indol-2-yl)-3-methylpyridin-2(1H)-one]
28.5 | 31.4 | 9650 | Cc1nc(-c2[nH]c3ccc(C4CCN(C)CC4)cc3c2C(C)C)cn(C)c1=O [Example 183, 5-(3-isopropyl-5-(1-methylpiperidin-4-yl)-1H-indol-2-yl)-1,3-dimethylpyrazin-2(1H)-one]
7.9 | 7.9 | 3180 | COCCn1cc(-c2[nH]c3ccc(C4CCNCC4)cc3c2C(C)C)cc(C)c1=O [Example 39, 5-(3-isopropyl-5-(piperidin-4-yl)-1H-indol-2-yl)-1-(2-methoxyethyl)-3-methylpyridin-2(1H)-one]
6.1 | 5.2 | 1240 | Cc1c(-c2[nH]c3ccc(C4CCN(CC(O)CO)CC4)cc3c2C(C)C)cn(C)c(=O)c1Cl (stereo not drawn) [Example 253, 3-chloro-5-(5-(1-(2,3-dihydroxypropyl)piperidin-4-yl)-3-isopropyl-1H-indol-2-yl)-1,4-dimethylpyridin-2(1H)-one]
5.2 | 7 | 6270 | CCn1cc(-c2[nH]c3ccc(C4CCN(C(=O)CN(C)C)CC4)cc3c2C(C)C)cc(C)c1=O [Example 282, 5-(5-(1-(dimethylglycyl)piperidin-4-yl)-3-isopropyl-1H-indol-2-yl)-1-ethyl-3-methylpyridin-2(1H)-one]
3.9 | 2.6 | 5190 | Cc1cc(-c2[nH]c3ccc(C4CCN(Cc5ccn(C)n5)CC4)cc3c2C(C)C)cn(C)c1=O [Example 195, 5-(3-isopropyl-5-(1-((1-methyl-1H-pyrazol-3-yl)methyl)piperidin-4-yl)-1H-indol-2-yl)-1,3-dimethylpyridin-2(1H)-one]
